From patent US20090208445A1, “Compositions Comprising Eucalyptol And/Or Ocimene And/Or Farnesol For Use As Bumblebee Pheromones” (QUEEN MARY & WESTFIELD COLLEGE, priority 2005, published 2009)

Key:
Bombus terrestris [1] = assay: Mobilisation of individually marked foragers of a colony by eucalyptol; assay type: in vivo
Experimental: To this end, all foragers were marked that arrived at an ad libitum sucrose feeder in a flight arena connected to a large nest (with >80 workers), over a period of two days. Bees were given individual number plates (Opalith). Then the colony was starved for 1 day, and on the next day, a sucrose feeder was inserted into the arena for one hour. After 30 min, the colony was exposed to eucalyptol as described above. Bees were caught immediately upon arrival, so that they could not provide feedback to the colony.

Bombus terrestris [2] = assay: Behavioural effect of individual compounds on forager recruitment (foragers leaving the nest in search for food); assay type: in vivo; details: 10 μl of 200 mg l-1 in acetone on filter paper in nest box lid every 5 min for 30 min vs preceding 30 min; 7 repeats, Wilcoxon test
Experimental: All experiments were performed with lab-reared colonies of Bombus terrestris with 30-50 workers. A total of ten colonies were used. Each nest was contained in a wooden box (26 cm·14 cm·10 cm), which was connected to a foraging arena (40 cm·60 cm·30 cm) with a Plexiglas tube of 30 cm length. Nest box and foraging arena had transparent Plexiglas covers, so that the behaviour of the bees could be observed. The arena contained a feeder at certain times of the experiment (see below).
To this end, 10 μl of solution of the individual compounds at 200 mg 1^−1 acetone, were dispensed onto a filter paper placed in a glass tube in the lid of the nest box. This was repeated every 5 minutes for half an hour, and numbers of foragers entering the flight arena in search for food were counted in 5 min intervals during the experimental half hour and in the preceding 30 min (control period). This experiment was repeated 7 times which each individual compound. In addition, 7 control runs were performed with acetone, to exclude the possibility that the solvent itself provoked a behavioural response. Tests were done in random sequence with three bumblebee colonies, with at least 4 h between tests on a single colony. None of the compounds were tested twice on the same day with the same colony.

Structure (SMILES) | Time for the remaining foragers to arrive after exposure of the colony (Bombus terrestris [1]; 13 remaining of 17 active foragers) [min] | Forager force of the colony activated (Bombus terrestris [1]; colony with 17 active marked foragers, starved 1 day, eucalyptol inserted after 30 min) | Number of foragers arriving at the feeder after exposure of the colony (Bombus terrestris [1]; of 17 active foragers, 4 had arrived in the 30 min before exposure) [foragers] | Effect on numbers of foragers leaving the nest in search for food (Bombus terrestris [2])
CC12CCC(CC1)C(C)(C)O2 [Eucalyptol, 1,3,3-Trimethyl-2-oxabicyclo[2.2.2.]octane] | ≤ 15 | entire forager force of the colony was activated | 13 | strongest response
CC(C)=CCCC(C)=CCCC(C)=CCO [E,E-farnesol, 3,7,11-trimethyl-2,6,10-dodecatrien-1-ol] | – | – | – | non-significant rise in activity
